Laboratory results from publication PMC9085577, “Discovery of a Potent and Orally Active Dual GPBAR1/CysLT1R Modulator for the Treatment of Metabolic Fatty Liver Disease” (Frontiers in Pharmacology, 2022).
pIC50: −log10 of the molar value.

Assays:
[1] = In vivo stability: amount of compound 2 in plasma of mice; conditions: 30 mg/kg
Experimental: The amount of compound 2 in plasma samples of animals treated with compound 2 was evaluated measuring the peak area of the compound at 1, 6, and 24 h after administration. 50 μL of plasma samples were mixed with 200 μL of acetonitrile, vortexed and incubated for 1 h on ice. Samples were then centrifuged for 10 min at 10,000 rpm and supernatants were evaporated to dryness. For LC/MS-MS analysis a QTRAP 6500 System (AB Sciex) equipped with Shimadzu LC-20A LC and AutoSampler was employed. […] The transition 356 →143 was employed for quantification. The following parameters were set: positive mode, DP 120 eV, EP 12 eV, CE 40 eV, CXP 23 V, CUR 30 psi, CAD Medium, IS 5500 V, TEM 350°C, GS1 and GS2 50 psi.
Given the promising results obtained during in vitro pharmacokinetics studies, the profile of disappearance of compound 2 was also evaluated in vivo. Mice were treated with compound 2 and plasma samples withdrawn 1, 6, and 24 h after administration were analyzed by LC-MSMS to evaluate the concentration of compound 2.

[2] = target: T1, Human CysLT1 (LTD4) (Homo sapiens, UniProt Q9Y271); assay: Human CysLT1 (LTD4) antagonist effect cellular functional assay (Ca2+ fluorescence, Eurofins Cerep-Panlabs); type: cell-based; conditions: antagonist effect, 0.1 nM LTD4; read-out: CysLT1R IC50
T1 construct: Eurofins Cerep-Panlabs (France), contract assay
T1 sequence (Q9Y271 1-337): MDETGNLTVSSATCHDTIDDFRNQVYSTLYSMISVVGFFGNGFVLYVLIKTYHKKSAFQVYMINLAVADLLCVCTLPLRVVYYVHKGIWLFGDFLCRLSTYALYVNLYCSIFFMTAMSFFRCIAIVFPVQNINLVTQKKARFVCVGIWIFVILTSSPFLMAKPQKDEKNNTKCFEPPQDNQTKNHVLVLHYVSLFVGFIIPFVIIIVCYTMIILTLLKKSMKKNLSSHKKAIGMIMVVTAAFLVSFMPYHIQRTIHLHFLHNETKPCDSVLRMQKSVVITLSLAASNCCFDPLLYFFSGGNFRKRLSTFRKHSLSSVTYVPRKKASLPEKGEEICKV
Experimental: Human CysLT1 (LTD4) (h) (antagonist effect) Cellular Functional Assay. These assays were performed at Eurofins Cerep-Panlabs (France). The cells were suspended in DMEM buffer (Invitrogen) and then distributed in microplates at a density of 3.104 cells/well. […] Thereafter, the assay plates are positioned in a microplate reader (CellLux, PerkinElmer), which was used for the addition of the test compound or HBSS buffer, then 5 min later, 0.1 nM LTD4 or HBSS buffer (basal control), and measured the changes in fluorescence intensity, which varies proportionally to the free cytosolic Ca^2+-ion concentration.

[3] = test system: C57BL/6J male mice fed HFD-F; assay: HFD-F mouse model of NAFLD/NASH (body weight, OGTT, biochemistry, histopathology, adipose tissues); type: in vivo; conditions: 30 mg/kg/day by gavage
Description: C57BL/6J male mice were fed a high fat diet (HFD) containing 59 KJ% fat plus 1% cholesterol, w/o sugar (ssniff ® EF R/M acc. D12330 mod. 22,7 ME/kg) and fructose (HFD-F) in drinking water (42 g/L), or normal chow diet for 61 days. Food intake was estimated as the difference of weight between the offered and the remnant amount of food at 3-days intervals. The food was provided as pressed pellets and the residual spillage was not considered. After 7 days, HFD-F mice were randomized to receive HFD-F alone or in combination with compound 2 (30 mg/kg/day) by gavage until the end of the experiment. Doses of each agent were chosen according to previously published data. Mice were housed under controlled temperature (22°C) and photoperiods (12:12-h light/dark cycle), allowed unrestricted access to standard mouse chow and tap water. The experimental protocol was approved by the Animal Care and Use Committee of the University of Perugia and by the Italian Minister of Health and Istituto Superiore di Sanità (Italy) and was in agreement with the European guidelines for use of experimental animals (permission n. 583/2017-PR). The general health of the animals was monitored daily by the Veterinarian in the animal facility. At the day of sacrifice, fed mice were deeply anesthetized with a mixture of tiletamine hypochloride and zolazepam hypochloride/xylazine at a dose of 50/5 mg/kg and sacrificed before 12 a.m.
Body weight and body length (nose-to-anus or nose–anus length) were measured in anesthetized mice at the time of sacrifice and were used to calculate the body mass index (BMI) (=body weight (g)/length^2 (cm^2)) and the Lee index (=cube root of body weight (g)/nose-to-anus length (cm)).
AST, ALT, total- and HDL-cholesterol, and triglycerides plasmatic levels were quantified using an automated clinical chemistry analyzer (Cobas, Roche).
After 8 weeks of HFD-F mice were fasted overnight and orally administered glucose (1.5 g/kg body weight) for OGTT. The blood glucose concentrations were measured at 0, 15, 30, 60, 90, and 120 min after feeding or injection using a portable glucose meter (Accu-Check Go, Roche).
Temperature of brown adipose tissue (BAT) was recorded through the study using a noninvasive technology. Briefly, mice were maintained at 25°C and the thermal images were taken by a FLIR E6 thermal imaging camera (FLIR System, Wilsonville, Oregon) and the surface temperature quantified by the FLIR Tools.
For histological examination, portions of the right and left liver lobes were fixed in 10% formalin, embedded in paraffin, sectioned and stained with Sirius red and/or Hematoxylin/Eosin (H&E), for morphometric analysis ([Fiorucci et al., 2004]). NASH severity (steatosis, hepatocytes ballooning, lobular inflammation, and portal inflammation) was scored in H&E-stained cross sections using an adapted grading system of human NASH as described previously ([Carino et al., 2017b]).

**Q.** For `O=C(O)c1cccc(-c2ccc(OCc3ccc4ccccc4n3)cc2)c1` [Compound 2, 4'-(quinolin-2-ylmethoxy)-[1,1′-biphenyl]-3-carboxylic acid], which “compound remaining in plasma” value ([1]; 6 h after administration) is on record?
**A.** considerable percentage of compound 2 is still present

**Q.** What about the “compound remaining in plasma” value ([1]; 24 h after administration) of the same molecule?
**A.** approximately 20%

**Q.** And the pIC50 [2]?
**A.** 5.25

**Q.** And the ALT plasma levels [3]?
**A.** reduced

**Q.** What about the AST plasma levels [3] of the same molecule?
**A.** reduced

**Q.** What about the “body mass index (BMI)” value [3] of the same molecule?
**A.** reduced

**Q.** What about the eWAT weight [3] of the same molecule?
**A.** reduced

**Q.** What about the “insulin sensitivity (OGTT)” value [3] of the same molecule?
**A.** increased

**Q.** And the “liver fibrosis and collagen deposition (Sirius red)” value [3]?
**A.** robustly attenuated

**Q.** What about the “liver steatosis and hepatocytes ballooning (H&E)” value [3] of the same molecule?
**A.** highly effective in reversing these features

**Q.** And the liver weight [3]?
**A.** reversed the effect exerted by the diet

**Q.** And the proatherogenic lipid profile [3]?
**A.** partially reversed

**Q.** What about the “ratio of BAT weight/body weight” value [3] of the same molecule?
**A.** reduced

**Q.** And the “ratio of eWAT weight/body weight” value [3]?
**A.** reduced these changes

**Q.** What about the “volume of BAT” value [3] of the same molecule?
**A.** reduced

**Q.** And the body weight gain ([3]; 54 days)?
**A.** reduced
